Measured values: patent EP0263213B1, “C20 Through C26 amino steroids” (THE UPJOHN COMPANY, priority 1986, dated 1988)
Where a name gives a salt, the structure may show the parent alone.

Assays:
rat brain synaptosomes [1] = assay: Conjugated Diene Formation Assay; assay type: biochemical; settings: active = inhibits conjugated diene formation by 50% or more; 100 »M (or less) of drug, 100 »M hydrogen peroxide, 200 »M ferrous ammonium sulfate
Source text: The formation of conjugated dienes as assayed by Braughler, J. Neurochem., 44, 1282 (1985), Bucher, Fund. Applied Tox., 3, 222 (1983) and Tein, Arch. Biochem. Biophy., 216, 142 (1982) is a standard pharmacological laboratory procedure useful for identifying compounds which inhibit lipid peroxidation. Since lipid peroxidation is involved in the pathophysiology of central nervous system trauma, compounds which inhibit conjugated diene formation are useful in treating the conditions listed below.
44, 1282 (1985). Synaptosomal suspension (10 »l) is added to 1 ml of physiological (normal) saline containing 1 % Lubrol PX (Sigma Chemical Co. St. Louis, Mo.), 100 »M hydrogen peroxide and 100 »M (or less) of the drug to be tested prepared in either absolute ethanol or water depending upon solubility. The reaction is started by the rapid addition of 200 »M ferrous ammonium sulfate is prepared in argon-purged water. The sample is rapidly mixed and the change in absorbance at 232nm is followied in a Gilford Response Spectrophotometer equipped with a rapid sampler. Due to the rapidity of the reaction, rapid addition of the iron, rapid mixing and sampling are obligatory to the accuracy of the assay. For best results absorbance readings of one/sec should be started within 5 sec following the addition of iron. The initial linear rate of absorbance change during the first 30 sec of reaction are compared with the rate of a reaction containing all reagents except synaptosomes. The difference in rates is the rate of conjugated diene formation. Rates with drug are compared to rates obtained in the absence of drug and the % inhibition is calculated. A compound that inhibits conjugated diene formation by 50% or more is considered to be "active".

arachidonic acid = assay: Arachidonic Acid Antagonism Assay (AAAA); assay type: in vivo; settings: male CF-1 mice; for arachidonic acid antagonism: active = elevates the LD50 of sodium arachidonate outside the 95% confidence interval of the control LD50, test compound IV 15 minutes before; for % of Control LD₅₀ 100mg/kg: LD50 of sodium arachidonate, IV
Protocol: Since these metabolites contribute to the pathological problems associated with stroke, spinal trauma and head injury, compounds which antagonize arachidonic acid are useful in treating stroke, spinal trauma and head injury.
While not necessary to determine arachidonic acid antagonism, the above assay has been modified as follows: Charles River male CF-1 mice weighing 18-22g are treated IV with the test compound dissolved in 1.0% Tween-80 and 0.1% hydrochloric acid in distilled water, 0.2 ml total volume. Fifteen minutes later sodium arachidonate (90% pure) in physiological (normal) saline is injected into the tail vein. The LD₅₀ is measured using the Spearman-Karber method with a log dose interval of 0.05 (N=6). Compounds which elevate the LD₅₀ outside of the 95% confidence interval of the control LD₅₀ are considered to be "active".

rat brain synaptosomes [2] = assay: Malonyldialdehyde (MDA) Formation Assay; assay type: biochemical; settings: active = inhibits MDA formation by 50% or more at 200»M or less; 10 min at 37°, pH 7.0, 150 uM Fe+++ and 50 uM Fe++
Protocol: Since lipid peroxidation is involved in the pathophysiology of central nervous system trauma, compounds which inhibit MDA formation are useful in treating the conditions listed below.
While not necessary to determine MDA formation, the above assays have been modified as follows: rat brain synaptosomes are prepared as described in the Example about the conjugated diene assay, except that the final wash of the synaptosomes and final suspension are in physiological (normal) saline in which the pH has been adjusted to 7.0. The synaptosomes are incubated for 10 min at 37° in physiological (normal) saline pH 7.0 (total volume = 100 ul) containing; 10 ul synaptosomal suspension, 10% DMSO plus or minus drug, 150 uM Fe⁺⁺⁺ and 50 uM Fe++. The incubation is started by the rapid addition of iron to the otherwise complete reaction. The iron solutions are prepared fresh as ferric chloride and ferrous ammonium sulfate in argon-purged water. Following the 10 min incubation, the reaction is stopped by the addition of 500 ul ice-cold 12% trichloroacetic acid prepared in 0.5 N hydrochoric acid. Water (300 ul) is then added along with 100 ul of freshly prepared thiobarbituric acid (3.3% in 0.5N sodium hydroxide) and 10 ul of 5mM desferrioxamine. The sample is then heated in a boiling water bath for 20 minutes. The samples are cooled and centrifuged for 15 minutes at 1500 xg and the absorbance of the supernatant fraction is read at 532 nm. The % inhibition of MDA formation is calculated by dividing the absorbance of sample containing drug by the absorbance of samples incubated without drug. Reaction blanks are samples incubated in the absence of iron. A compound that inhibits MDA formation by 50% or more at a concentration of 200»M or less is considered "active".

ACAT = assay: AcylCoA:Cholesterol Acyltransferase (ACAT) Inhibition Assay; assay type: cell-based
Source text: ACAT esterifies arterial cholesterol which is a key reaction in the development of atherosclerosis. The procedure of Bell, Can. […] In the ACAT assay it is preferred to use Fu5AH cells, see Lipids 9, 526 (1974). According to this procedure, compounds which inhibit ACAT activity equal to, or greater than, that of chlorpromazine are considered "active".

Structure (SMILES)	arachidonic acid antagonism (arachidonic acid)	inhibition of MDA formation (rat brain synaptosomes [2])	further results
CCN(CC)c1cc(N2CCN(CC(=O)[C@@]3(O)CC[C@H]4[C@@H]5CCC6=CC(=O)CC[C@]6(C)C5=CC[C@@]43C)CC2)nc(N)n1 [Example 4, 21-[4-[2-Amino-6-(diethylamino)-4-pyrimidinyl]-1-piperazinyl]-17α-hydroxypregna-4,9(11)-diene-3,20-dione]	demonstrate arachidonic acid antagonism	–	inhibition of conjugated diene formation (rat brain synaptosomes [1]): demonstrate such activity by inhibition of conjugated dienes
C[C@]12CCC(=O)C=C1CC[C@@H]1C2=CC[C@@]2(C)[C@H]1CC[C@]2(O)C(=O)CN1CCC(O)(c2ccc(C(F)(F)F)cc2)CC1 [Example 5, 17α-Hydroxy-21-[4-hydroxy-4-(4-trifluoromethyl)phenyl-1-piperidinyl]pregna-4,9(11)-diene-3,20-dione]	–	–	inhibition of conjugated diene formation (rat brain synaptosomes [1]): demonstrate such activity by inhibition of conjugated dienes
CCN(CC)c1nc(N2CCCCC2)cc(N2CCN(CC(=O)[C@@]3(O)CC[C@H]4[C@@H]5CCC6=CC(=O)CC[C@]6(C)C5=CC[C@@]43C)CC2)n1.Cl.O [Example 17]	–	demonstrate such activity by inhibition of MDA formation	% of Control LD₅₀ 100mg/kg (arachidonic acid): 150%; % Inhibition of ACAT (5 »g/ml) (ACAT; 5 »g/ml): 32.2%; inhibiting ACAT (ACAT; active = inhibits ACAT activity equal to, or greater than, that of chlorpromazine): active in inhibiting ACAT
CN1CCN(c2cc(N3CCN(CC(=O)[C@@]4(O)CC[C@H]5[C@@H]6CCC7=CC(=O)CC[C@]7(C)C6=CC[C@@]54C)CC3)nc(N3CCN(C)CC3)n2)CC1.CS(=O)(=O)O.O [Example 19, 17α-Hydroxy-21-[4-[2,6-bis(4-methyl-1-piperazinyl)-4-pyrimidinyl]-1-piperazinyl]pregna-4,9(11)diene-3,20-dione methanesulfonate hydrate]	demonstrate arachidonic acid antagonism	–	% of Control LD₅₀ 100mg/kg (arachidonic acid): 141%
C[C@H]1C[C@@H]2[C@H]([C@@H](O)C[C@@]3(C)[C@H]2CC[C@]3(O)C(=O)CN2CCN(c3ccccn3)CC2)[C@@]2(C)C=CC(=O)C=C12 [Example 21, 11β-17α-dihydroxy-6α-methyl-21-[4-(2-pyridinyl)-1-piperazinyl]pregna-1,4-diene-3,20-dione]	demonstrate arachidonic acid antagonism	–	–
COc1cccc(N2CCN(CC(=O)[C@@]3(O)CC[C@H]4[C@@H]5CCC6=CC(=O)CC[C@]6(C)C5=CC[C@@]43C)CC2)n1.CS(=O)(=O)O [Example 22, 17α-hydroxy-21-[4-(6-methoxy-2-pyridinyl)-1-piperazinyl]pregna-4,9(11)-diene-3,20-dione monomethanesulfonate]	demonstrate arachidonic acid antagonism	–	–
C[C@]12C=CC(=O)C=C1CC[C@@H]1[C@@H]2[C@@H](O)C[C@@]2(C)[C@H]1CC[C@]2(O)C(=O)CN1CCN(c2ccccn2)CC1 [Example 25, 11β,17α-dihydroxy-21-[4-(2-pyridinyl)-1-piperazinyl]-pregna-1,4-diene-3,20-dione dihydrochloride]	demonstrate arachidonic acid antagonism	–	–
C[C@]12CCC(=O)C=C1CC[C@@H]1[C@@H]2[C@H](O)C[C@@]2(C)[C@H]1CC[C@]2(O)C(=O)CN1CCN(c2ccc(F)cc2)CC1 [Example 29, 21-[4-(4-fluorophenyl)-1-piperazinyl]-11α,17α-dihydroxypregn-4-ene-3,20-dione dihydrochloride]	demonstrate arachidonic acid antagonism	–	–
C[C@@H]1C[C@H]2[C@@H]3CCC4=CC(=O)C=C[C@]4(C)[C@H]3[C@H](O)C[C@]2(C)[C@H]1C(=O)CN1CCN(c2cc(N3CCCC3)nc(N3CCCC3)n2)CC1 [Example 84]	–	–	inhibition of conjugated diene formation (rat brain synaptosomes [1]): demonstrate such activity by inhibition of conjugated dienes
C[C@]12CCC(=O)C=C1CC[C@@H]1C2=CC[C@]2(C)[C@@H](CCN3CCN(c4cc(N5CCCC5)nc(N5CCCC5)n4)CC3)CC[C@@H]12.Cl [Example 104, 21-[4-(2,6-Bis(1-pyrrolidinyl)-4-pyrimidinyl)-1-piperazinyl]pregna-4,9(11)-dien-3-one hydrochloride]	–	demonstrate such activity by inhibition of MDA formation	–
C[C@]12CC[C@H]3[C@@H](CCC4=CC(=O)CC[C@@]43C)[C@@H]1CC[C@@H]2CCN1CCN(c2cc(N3CCCC3)nc(N3CCCC3)n2)CC1.Cl [Example 107]	–	demonstrate such activity by inhibition of MDA formation	–
C[C@@]12C(=CC(=O)C[C@@H]1C#N)CC[C@@H]1C2=CC[C@]2(C)[C@@H](CCN3CCN(c4cc(N5CCCC5)nc(N5CCCC5)n4)CC3)CC[C@@H]12.Cl.Cl.Cl.O [Example 110]	–	demonstrate such activity by inhibition of MDA formation	–
C[C@]12C=CC(=O)C=C1CC[C@@H]1C2=CC[C@]2(C)[C@@H](C(=O)CN3CCN(c4cc(N5CCCC5)nc(N5CCCC5)n4)CC3)CC[C@@H]12.Cl.Cl [Example 111]	–	–	inhibition of conjugated diene formation (rat brain synaptosomes [1]): demonstrate such activity by inhibition of conjugated dienes
CC(CN1CCN(c2cc(N3CCCC3)nc(N3CCCC3)n2)CC1)[C@H]1CC[C@H]2[C@@H]3CCC4=CC(=O)C=C[C@]4(C)[C@H]3CC[C@]12C.CS(=O)(=O)O.O (stereo partly drawn) [Example 112]	–	–	inhibition of conjugated diene formation (rat brain synaptosomes [1]): demonstrate such activity by inhibition of conjugated dienes
C[C@H]1C[C@H]2[C@@H]3C[C@H](F)C4=CC(=O)CC[C@]4(C)C3=CC[C@]2(C)[C@@]1(O)C(=O)CN1CCN(c2cc(N3CCCC3)nc(N3CCCC3)n2)CC1.Cl.Cl [Example 118]	–	demonstrate such activity by inhibition of MDA formation	–
C[C@@H]1C[C@H]2[C@@H]3CCC4=CC(=O)C=C[C@]4(C)[C@H]3CC[C@]2(C)[C@H]1C(=O)CN1CCN(c2cc(N3CCCC3)nc(N3CCCC3)n2)CC1.Cl.Cl [Example 121]	–	demonstrate such activity by inhibition of MDA formation	–
COc1ccc2c(c1)CC[C@@H]1[C@@H]2CC[C@@]2(C)[C@H]1CC[C@]2(O)C(=O)CN1CCN(c2cc(N3CCCC3)nc(N3CCCC3)n2)CC1 [Example 125]	–	demonstrate such activity by inhibition of MDA formation	–
CCNc1cccnc1N1CCN(CC(=O)[C@H]2[C@H](C)C[C@H]3[C@@H]4CCC5=CC(=O)C=C[C@]5(C)C4=CC[C@@]32C)CC1.Cl [Example 127, 21-[4-[3-(Ethylamino)-2-pyridinyl]piperazinyl]-16α-methylpregna-1,4,9(11)-triene-3,20-dione hydrochloride]	–	demonstrate such activity by inhibition of MDA formation	–
C[C@]12CC[C@@H]3c4ccc(O)cc4CC[C@H]3[C@@H]1CC[C@]2(O)C(=O)CN1CCN(c2cc(N3CCCC3)nc(N3CCCC3)n2)CC1 [Example 129, 3,17α-Dihydroxy-21-[4-[2,6-bis(1-pyrrolidinyl)-4-pyrimidinyl]-1-piperazinyl]-19-norpregna-1,3,5-(10)-trien-20-one (E)-2-butenedioate 1:1 salt]	–	demonstrate such activity by inhibition of MDA formation	–
